Laboratory results from PMC5984089, “FBXW7 regulates DISC1 stability via the ubiquitin-proteosome system” (Molecular Psychiatry, 2017).
Residues, ends and D or L forms follow the SMILES beside them. *: point of attachment. Cbz = O=C(OCc1ccccc1)*

Test system: HA-DISC1
Assay: DISC1 ubiquitination in transfected HEK293 cells, immunoprecipitation
Format: cell-based, human
Method: Briefly, detergent-soluble proteins were isolated from cells by disruption in lysis buffer 20 mM Tris-HCl (pH 7.5), 150 mM NaCl, 1 mM Na2EDTA, 1 mM EGTA, 1% triton, 2.5 mM sodium pyrophosphate, 1 mM β-glycerophosphate, 1 mM Na3VO4, 1 μg ml^–1 leupeptin, 10 mM DTT with Roche protease inhibitor, phosSTOP (Roche, 04906837001). Detergent-insoluble proteins were removed by centrifugation at 10 000 g for 10 min, and the soluble fraction was retained. Cell lysates were adjusted to equal protein amount (1 μg μl^–1) using cell lysis buffer. Cell lysates normalized for the protein concentration were incubated with mouse IgG (Millipore, 12487) Protein A agarose beads for 2 h at 4 °C. […] The complexes were analyzed on SDS PAGE. […]
Antibodies used in this study are detailed in Supplementary Table 1. […] Chemiluminescent images of immune detected bands were recorded on blue-light sensitive autoradiography X-ray films, which were then developed using the Kodak X-Omat Model 2000 processor and band intensities were quantified using image J. Alternatively blots were visualized using the Licor Odyssey system and quantified using LICOR Image Studio Lite (Licor Biosciences).
Figure 1 DISC1 turnover is regulated by the ubiquitin-proteosome system. […] HA-DISC1 levels were evaluated using densitometry (bar-chart, n=3). ‘Nt’ indicates no treatment control. […]

In the case of `CC(C)C[C@@H](C=O)NC(=O)[C@H](CC(C)C)NC(=O)[C@H](CC(C)C)NC(=O)OCc1ccccc1` [MG132] (Cbz-Leu-Leu-Leu-aldehyde), the “co-purification of HA-DISC1 with ubiquitin” value (MG132 10 μM, 30 min exposure, Figure 1c) is reported as “HA-DISC1 immunoprecipitates co-purify with ubiquitin after a 30 min exposure to MG132” and the “DISC1 ubiquitination with over-expressed DISC1 or ubiquitin, further effect of MG132” value (MG132 10 µM, Supplementary Figure 1a) is reported as “not enhanced further by MG132”.
